Molecular target: canine TRPM8 (Canis lupus familiaris, UniProt Q1A7N1)
Assay: In Vitro Canine TRPM8 Functional Assay (Ca2+ fluorescence, icilin activation)
Type: cell-based
Conditions: for IC50: HEK293 cells stably expressing canine TRPM8, icilin activation, eight-point dose-response, read-out: IC50; for inhibition at 0.2 µM: compound at 0.2 μM, canine TRPM8, icilin activation, read-out: % Inh @ 0.2
How it was run: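 Eight-point dose-response curves, each point averaging quadruplicate wells, gave EC50 or IC50. Canine TRPM8-expressing HEK293 cells, dye-loaded (Calcium 3), were pre-exposed 5 min to compound, then challenged with icilin at roughly EC80; intracellular Ca2+ read by FLIPR or FDSS fluorescence.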

Sequence of canine TRPM8 (Q1A7N1 1-1104): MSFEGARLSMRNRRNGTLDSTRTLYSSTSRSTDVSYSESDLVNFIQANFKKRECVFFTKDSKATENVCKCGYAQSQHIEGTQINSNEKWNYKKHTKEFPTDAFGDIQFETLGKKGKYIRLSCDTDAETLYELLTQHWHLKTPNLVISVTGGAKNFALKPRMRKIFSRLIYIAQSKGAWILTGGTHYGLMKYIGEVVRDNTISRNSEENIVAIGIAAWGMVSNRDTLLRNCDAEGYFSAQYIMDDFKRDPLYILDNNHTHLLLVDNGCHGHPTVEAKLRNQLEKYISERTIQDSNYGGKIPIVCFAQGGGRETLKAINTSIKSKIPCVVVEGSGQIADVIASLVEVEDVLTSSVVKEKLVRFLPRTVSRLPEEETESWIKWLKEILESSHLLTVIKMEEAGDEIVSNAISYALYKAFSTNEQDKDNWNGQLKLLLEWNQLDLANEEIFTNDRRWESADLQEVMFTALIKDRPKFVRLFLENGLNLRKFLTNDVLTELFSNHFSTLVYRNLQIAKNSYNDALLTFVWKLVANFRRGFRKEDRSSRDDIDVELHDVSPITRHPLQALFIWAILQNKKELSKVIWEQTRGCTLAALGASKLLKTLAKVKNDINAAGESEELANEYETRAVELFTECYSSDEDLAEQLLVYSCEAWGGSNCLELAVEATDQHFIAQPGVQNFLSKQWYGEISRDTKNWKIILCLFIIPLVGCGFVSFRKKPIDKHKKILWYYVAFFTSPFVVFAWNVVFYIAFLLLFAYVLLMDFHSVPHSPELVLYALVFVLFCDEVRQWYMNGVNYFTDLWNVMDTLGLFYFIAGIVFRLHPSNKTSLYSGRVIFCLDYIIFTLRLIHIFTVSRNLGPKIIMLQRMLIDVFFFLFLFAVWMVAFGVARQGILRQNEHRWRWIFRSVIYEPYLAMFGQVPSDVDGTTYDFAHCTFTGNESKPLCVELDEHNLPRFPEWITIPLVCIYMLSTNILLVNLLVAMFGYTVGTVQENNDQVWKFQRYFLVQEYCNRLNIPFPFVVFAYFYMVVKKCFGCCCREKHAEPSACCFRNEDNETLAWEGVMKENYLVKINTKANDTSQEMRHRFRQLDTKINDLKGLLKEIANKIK

Compound | IC50 [nM] | inhibition at 0.2 µM [%]
O=c1[nH]c(-c2ccc(S(=O)(=O)N(CCC3CC3)c3cc4ccccc4s3)cc2)ns1 [Compound 642, N-(Benzo[b]thiophen-2-yl)-N-(cyclopropyl-ethyl)-4-(5-oxo-4,5-dihydro-[1,2,4]thiadiazol-3-yl)-benzenesulfonamide] | 41 | 90
CN(C)C1=C(N(CCC2CC2)S(=O)(=O)c2ccccc2)S(=O)(=O)c2ccccc21 [Compound 643, N-(2-Cyclopropylethyl)-N-(3-dimethylamino-1,1-dioxo-1H-benzo[b]thiophen-2-yl)-benzenesulfonamide] | 5 | 103
CNC1=C(N(CCC2CC2)S(=O)(=O)c2ccccc2)S(=O)(=O)c2ccccc21 [Compound 644, N-(2-Cyclopropylethyl)-N-(3-methylamino-1,1-dioxo-1H-benzo[b]thiophen-2-yl)-benzenesulfonamide] |  | 63
CN1CCN(C2=C(N(CCC3CC3)S(=O)(=O)c3ccccc3)S(=O)(=O)c3ccccc32)CC1 [Compound 645, N-(2-Cyclopropyl-ethyl)-N-[3-(4-methyl-piperazin-1-yl)-1,1-dioxo-1H-1λ^6-benzo[b]thiophen-2-yl]-benzenesulfonamide] |  | 20
NC1=C(N(CCC2CC2)S(=O)(=O)c2ccccc2)S(=O)(=O)c2ccccc21 [Compound 646, N-(3-Amino-1,1-dioxo-1H-benzo[b]thiophen-2-yl)-N-(2-cyclopropylethyl)-benzenesulfonamide] |  | 55
O=S1(=O)C(N(CCC2CC2)S(=O)(=O)c2ccccc2)=C(N2CCNCC2)c2ccccc21 [Compound 647, N-(2-Cyclopropyl-ethyl)-N-(1,1-dioxo-3-piperazin-1-yl-1H-1λ^6-benzo[b]thiophen-2-yl)-benzenesulfonamide] |  | 21
CNC1=C(N(Cc2ccc(F)c(C(F)(F)F)c2)S(=O)(=O)c2ccccc2)S(=O)(=O)c2ccccc21 [Compound 648, N-(4-Fluoro-3-trifluoromethyl-benzyl)-N-(3-methylamino-1,1-dioxo-1H-1λ^6-benzo[b]thiophen-2-yl)-benzenesulfonamide] |  | 62
CN1CCN(C2=C(N(Cc3ccc(F)c(C(F)(F)F)c3)S(=O)(=O)c3ccccc3)S(=O)(=O)c3ccccc32)CC1 [Compound 649, N-(4-Fluoro-3-trifluoromethyl-benzyl)-N-[3-(4-methyl-piperazin-1-yl)-1,1-dioxo-benzo[b]thiophen-2-yl]-benzenesulfonamide] |  | 26
Nc1ccc(S(=O)(=O)N(Cc2ccc(F)c(C(F)(F)F)c2)c2sc3ccccc3c2Br)cc1 [Compound 650, 4-Amino-N-(3-bromo-benzo[b]thiophen-2-yl)-N-(4-fluoro-3-trifluoromethyl-benzyl)-benzenesulfonamide] | 4 | 102
Nc1ccc(S(=O)(=O)N(Cc2ccc(F)c(C(F)(F)F)c2)c2sc3ccccc3c2Br)cc1Br [Compound 651, 4-Amino-3-bromo-N-(3-bromo-benzo[b]thiophen-2-yl)-N-(4-fluoro-3-trifluoromethyl-benzyl)-benzenesulfonamide] | 6 | 103
CS(=O)(=O)Nc1ccc(S(=O)(=O)N(Cc2ccc(F)c(C(F)(F)F)c2)c2cc3ccccc3s2)cc1 [Compound 652, N-(Benzo[b]thiophen-2-yl)-N-(4-fluoro-3-trifluoromethyl-benzyl)-4-methanesulfonylamino-benzenesulfonamide] | 85 | 102
Nc1ccc(S(=O)(=O)N(Cc2ccc(F)c(C(F)(F)F)c2)c2cc3ccccc3s2)cc1 [Compound 653, 4-Amino-N-(benzo[b]thiophen-2-yl)-N-(4-fluoro-3-trifluoromethyl-benzyl)-benzenesulfonamide] | 13 | 102
O=S(=O)(c1ccc(Br)cc1)N(CCC1CC1)c1cc2ccccc2s1 [Compound 654, N-(Benzo[b]thiophen-2-yl)-N-(2-cyclopropyl-ethyl)-4-bromo-benzenesulfonamide] |  | 56
O=S(=O)(c1ccc(Br)cc1)N(CCCCC(F)(F)F)c1cc2ccccc2s1 [Compound 655, N-(Benzo[b]thiophen-2-yl)-4-bromo-N-(5,5,5-trifluoro-pentyl)-benzenesulfonamide] |  | 55
CC(C)(O)c1c(N(CCCCC(F)(F)F)S(=O)(=O)c2ccc(Br)cc2)sc2ccccc12 [Compound 656, 4-Bromo-N-(3-(1-hydroxy-1-methyl-ethyl)-benzo[b]thiophen-2-yl)-N-(5,5,5-trifluoro-pentyl)-benzenesulfonamide] | 53.7 | 98
CS(=O)(=O)Nc1ccc(S(=O)(=O)N(Cc2ccc(F)c(C(F)(F)F)c2)c2sc3ccccc3c2Cl)cc1 [Compound 659, N-(3-Chloro-benzo[b]thiophen-2-yl)-N-(4-fluoro-3-trifluoromethyl-benzyl)-4-methanesulfonylamino-benzenesulfonamide] | 14.1 | 100
CS(=O)(=O)Nc1ccc(S(=O)(=O)N(Cc2ccc(F)c(C(F)(F)F)c2)c2sc3ccccc3c2Br)cc1 [Compound 660, N-(3-Bromo-benzo[b]thiophen-2-yl)-N-(4-fluoro-3-trifluoromethyl-benzyl)-4-methanesulfonylamino-benzenesulfonamide] | 11.2 | 100
CS(=O)(=O)Nc1ccc(S(=O)(=O)N(Cc2ccc(F)c(C(F)(F)F)c2)c2sc3ccccc3c2Br)cc1Br [Compound 661, 3-Bromo-N-(3-bromo-benzo[b]thiophen-2-yl)-N-(4-fluoro-3-trifluoromethyl-benzyl)-4-methanesulfonylamino-benzenesulfonamide] | 14.1 | 100
Cc1c(N(CCCCC(F)(F)F)S(=O)(=O)C(F)(F)F)sc2ccccc12 [Compound 662, C,C,C-Trifluoro-N-(3-methyl-benzo[b]thiophen-2-yl)-N-(5,5,5-trifluoro-pentyl)-methanesulfonamide] |  | 50.1
O=S(=O)(N(Cc1ccc(F)c(C(F)(F)F)c1)c1cc2ccccc2s1)C(F)(F)F [Compound 663, N-Benzo[b]thiophen-2-yl-N-(4-fluoro-3-trifluoromethyl-benzyl)-C,C,C-trifluoro-methanesulfonamide] |  | 17.1
Cc1c(N(Cc2ccc(F)c(C(F)(F)F)c2)S(=O)(=O)C(F)(F)F)sc2ccccc12 [Compound 664, C,C,C-Trifluoro-N-(4-fluoro-3-trifluoromethyl-benzyl)-N-(3-methyl-benzo[b]thiophen-2-yl)-methanesulfonamide] |  | 53.1
Cc1c(N(CCC2CC2)S(=O)(=O)C(F)(F)F)sc2ccccc12 [Compound 665, N-(2-Cyclopropyl-ethyl)-C,C,C-trifluoro-N-(3-methyl-benzo[b]thiophen-2-yl)-methanesulfonamide] |  | 27.9
Nc1ccc(S(=O)(=O)N(CCCCC(F)(F)F)c2sc3ccccc3c2Cl)cc1 [Compound 666, 4-Amino-N-(3-chloro-benzo[b]thiophen-2-yl)-N-(5,5,5-trifluoro-pentyl)-benzenesulfonamide] | 8.1 | 103
Nc1ccc(S(=O)(=O)N(CCCCC(F)(F)F)c2sc3ccccc3c2Cl)cc1Cl [Compound 667, 4-Amino-3-chloro-N-(3-chloro-benzo[b]thiophen-2-yl)-N-(5,5,5-trifluoro-pentyl)-benzenesulfonamide] | 30.1 | 103

Reference: patent US9434711B2 (Janssen Pharmaceutica, NV, priority 2007, dated 2016)
